The test system of the assay is M. tuberculosis H37Rv growth inhibition. In words: M. tuberculosis H37Rv growth inhibitors, H37Rv strain (AID 1626). As to conditions: for CC50: measured here: Vero cell cytotoxicity; for IC90: measured here: IC90 against H37Rv.

One may read the CC50 as the concentration that lowers cell viability or growth by half. What is called IC50 is the concentration that gives 50% inhibition. For orientation: IC90 means the point of the concentration-response curve where the effect stands at 90%. A high value points to a need for much substance.

With `O=C(CSCc1ccc(Cl)cc1)Nc1ccc(-c2nnc(-c3ccccc3)o2)cc1`, the CC50 is 6.18 µM.

On to `O=c1oc(/C=C/c2ccccc2)nc2ccccc12`, for which the IC50 is 12.7 µM and the IC90 is > 100 µM.

In the case of `COc1ccc(NC(C#N)c2ccc(OC)cc2)cc1` (stereo not drawn), the IC90 was > 100 µM.

In the case of `Cc1cc(=O)oc2cc(Oc3ncccc3[N+](=O)[O-])ccc12`, the IC50 is 9.46 µM and the IC90 is > 100 µM.

As to `CCn1c(CNc2ccccc2Cl)nnc1SCC(=O)OC1CCCCC1`, the IC50 is 1.63 µM and the IC90 stood at 3.2 µM.

For the molecule `O=C(CNCc1ccccc1)Nc1ccc(Oc2ccccc2)cc1`, the concentration for half-maximal inhibition (IC50) was 13.2 µM and the IC90 is > 100 µM.

Take `COc1ccc(C2=CC(c3c(C)nn(-c4ccccc4)c3Cl)n3nnnc3N2)cc1OC` (stereo not drawn): the half-inhibitory concentration (IC50) is 8.88 µM and the IC90 worked out at 14.1 µM.

`O=C(Oc1ccc(/C=N/O)cc1)c1ccccc1Cl`: the IC50 is 28.5 µM and the IC90 is > 100 µM.

`CCn1c(NC(=O)c2cccs2)nc2ccccc21`: the IC50 is 5.32 µM and the IC90 is > 100 µM.

For the molecule `Nc1nc(-c2cccc(F)c2)cs1`, the IC50 was 11.2 µM and the IC90 was > 100 µM.

`c1ccc(-c2nc(NCCCn3ccnc3)c3oc4ccccc4c3n2)cc1`: the IC50 is 2.81 µM, the IC90 was found to be 3.16 µM and the CC50 is > 40 µM.

For `COc1ccc(-c2nnc(NC(=O)C3=COCCO3)o2)cc1`, the half-maximal inhibitory concentration (IC50) is 12.7 µM, the IC90 worked out at 19.7 µM and the half-maximal cytotoxic concentration (CC50) was > 40 µM.

For the molecule `COC(=O)CSc1nnc(-c2ccc(OC)cc2OC)o1`, the IC50 is 1.76 µM and the IC90 turned out to be 4.54 µM.

Regarding `O=C(c1ccc2c(c1)[nH]c(=S)n1c3ccccc3nc21)N1CCN(c2cccc(Cl)c2)CC1`, the IC50 was 4.39 µM, the IC90 came to 32.3 µM and the CC50 was 26.5 µM.

As for `Cc1ccccc1-n1ncc2c([N+](=O)[O-])cc([N+](=O)[O-])cc21`, the IC50 was 2.97 µM, the 90% effect concentration (IC90) worked out at 4.48 µM and the CC50 was > 40 µM.

Turning to `CCOC(=O)c1ccc(NCc2nc3ccccc3[nH]2)cc1`, the IC50 was 43.5 µM and the IC90 is > 100 µM.

For the molecule `Cn1c(-c2c(N)n(-c3ccccc3)c3nc4ccccc4nc23)nc2ccccc21`, the IC50 is 0.331 µM, the IC90 was > 100 µM and the CC50 is > 40 µM.

On to `C#CCn1c(=NC(=O)c2cc(Cl)sc2Cl)sc2cc(S(N)(=O)=O)ccc21`, for which the IC50 was 1.57 µM, the IC90 was > 100 µM and the CC50 is > 40 µM.

As for `CCOC(=O)c1cc(COc2cc(Cl)cc(Cl)c2)on1`, the IC50 is 3.01 µM and the IC90 worked out at 21.6 µM.

Turning to `Cc1ccc(/C=C/C(=O)C2C(=O)c3ccccc3C2=O)cc1`, the IC50 is 3.39 µM, the IC90 came to 5.29 µM and the CC50 was > 40 µM.

Turning to `O=C(c1cc(COc2ccc(F)cc2Cl)on1)N1CCC(OCc2cccnc2)CC1`, the IC90 was > 100 µM and the CC50 came out at 8.01 µM.

For the molecule `Cc1nc(N/C(N)=N/S(=O)(=O)c2ccc([N+](=O)[O-])cc2)nc2ccccc12`, the half-inhibitory concentration (IC50) was 9.12 µM, the IC90 is > 100 µM and the half-maximal cytotoxic concentration (CC50) was > 40 µM.

In the case of `O=c1oc2ccccc2c(Nc2ccc3ccccc3c2)c1[N+](=O)[O-]`, the IC50 is 7.32 µM, the IC90 is > 100 µM and the CC50 is > 40 µM.

`COc1cccc(-c2nnc(Nc3nc4c(F)cccc4s3)o2)c1`: the IC50 was 1.56 µM, the IC90 amounted to 51.8 µM and the CC50 was > 40 µM.

Consider `Cc1ccc(OCc2nnc(SCc3cc(=O)[nH]c4ccccc34)n2-c2ccccc2)cc1`, for which the IC50 was 27.8 µM, the IC90 is > 100 µM and the half-maximal cytotoxic concentration (CC50) was > 40 µM.

As to `CCC(=O)c1ccc(OCC(=O)Nc2ccc3nc(C)sc3c2)cc1`, the half-maximal inhibitory concentration (IC50) is 6.26 µM and the 90% effect concentration (IC90) is > 100 µM.

For `Nc1cc(=O)[nH]c(SCC(=O)Nc2ccccc2-c2ccccc2)n1`, the IC90 was > 100 µM and the cytotoxic concentration (CC50) is > 40 µM.

As for `Cc1nc(-c2ccccn2)nc(SCC(=O)c2ccccc2)c1Cl`, the IC50 was 3.68 µM, the 90% effect concentration (IC90) stood at 6.49 µM and the CC50 was > 40 µM.

With `O=C(C=C=Nc1ccccc1)C(=O)N=C=Cc1ccccc1`, the IC50 was 16.4 µM, the IC90 was determined as 25 µM and the CC50 stood at 22.8 µM.

`CN1/C(=C/C(=O)c2nc(S(C)(=O)=O)ncc2Cl)C(C)(C)c2ccccc21`: the IC50 is 12 µM, the IC90 was found to be 13.7 µM and the CC50 is > 40 µM.

Consider `Clc1nc(-c2ccccn2)nc2scc(-c3ccccc3)c12`, for which the IC50 was 9.23 µM, the IC90 turned out to be 15.5 µM and the CC50 is 19.9 µM.

`O=C(Nc1ccn(Cc2ccccc2F)n1)c1ccc(COc2ccc(Cl)cc2Cl)o1`: the IC50 is 33.9 µM, the IC90 is > 100 µM and the CC50 is > 40 µM.

`CC(=O)c1ccc(NC(=O)COC(=O)c2c3c(nc4ccccc24)/C(=C\c2cccs2)CCC3)cc1`: the IC50 is 0.449 µM, the IC90 was > 100 µM and the CC50 amounted to 13.6 µM.

As for `CC(C)Cn1c(N2CCN(C(=O)/C=C/c3ccccc3)CC2)nc2ccccc21`, the IC50 was 21.5 µM and the IC90 is 29.9 µM.

In the case of `CCOC(=O)CSc1nnc(-c2ccccc2NC(=O)c2ccccc2)o1`, the IC50 is 2.75 µM and the IC90 was > 100 µM.

With `CCc1nc(NCc2ccc3c(c2)OCO3)c2oc3ccccc3c2n1`, the IC50 was 8.85 µM, the IC90 is 17 µM and the 50% cytotoxic concentration (CC50) is > 40 µM.

In the case of `c1ccc(N2CCN(c3nc(NCc4ccco4)c4ccccc4n3)CC2)cc1`, the IC50 was 9.66 µM, the IC90 was 14.4 µM and the 50% cytotoxic concentration (CC50) is > 40 µM.

For `CC(C)N=c1cc2n(-c3ccc(Cl)cc3)c3ccccc3nc-2cc1Nc1ccc(Cl)cc1`, the half-maximal inhibitory concentration (IC50) is < 0.391 µM, the IC90 is < 0.391 µM and the CC50 is > 40 µM.

As to `CCOc1ccc(NCc2nnc(SCC(=O)Nc3cc(C)on3)n2-c2ccc(OC)cc2)cc1`, the IC50 is 35.3 µM and the IC90 was > 100 µM.

As for `O=C(c1coc2ccc(O)cc12)C1CC1`, the concentration for half-maximal inhibition (IC50) is 27.5 µM and the IC90 is > 100 µM.

For `CC(=O)n1cc(N(C(=O)CCl)c2ccccc2)c2ccccc21`, the IC50 is 3.1 µM, the IC90 stood at 7.33 µM and the CC50 was found to be 0.792 µM.

As for `Cc1cccc(Oc2ccc(N)cc2)c1`, the concentration for an effect of 90% (IC90) was > 100 µM.

On to `O=C(COC(=O)Cc1ccccc1)Nc1ccc(SC(F)F)cc1`, for which the IC50 was 36.4 µM and the IC90 was > 100 µM.

In the case of `Cc1cc(OCCCCCn2ccnc2)cc(C)c1Cl`, the IC50 was 4.17 µM, the IC90 was 5.19 µM and the CC50 worked out at 24.6 µM.

In the case of `CCc1nnc(NC(=O)c2cc3ccccc3oc2=O)s1`, the IC50 was < 0.195 µM and the IC90 came to 4.5 µM.

As for `O=C(CN1CCC(C(=O)c2ccc3c(c2)OCCO3)CC1)NC1CCCC1`, the CC50 was > 40 µM.

Regarding `O=C(Nc1nc(-c2ccccn2)cs1)c1cc2ccccc2o1`, the concentration for half-maximal inhibition (IC50) is 2.62 µM, the IC90 was determined as 42.6 µM and the CC50 is > 40 µM.

For the origin of these results see PubChem BioAssay AID1626 (SRMLSC, 2009).
